Assay results: ChEMBL document CHEMBL1201861, “Genomics of Drug Sensitity in Cancer screening data, Wellcome Trust Sanger Institute”
pIC50: −log10 of the molar value.

What was measured:
Experiment in all cases: cells
AM-38 = assay type: functional, cell-based, Homo sapiens; settings: Homo sapiens, AM-38;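 note: growth inhibition of AM-38 cells of human origin, read out by a cell viability assay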
SK-LMS-1 = assay type: functional, cell-based, Homo sapiens; settings: Homo sapiens, SK-LMS-1;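 note: growth inhibition of human SK-LMS-1 cells, read out with a cell viability assay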
L-363 = assay type: functional, cell-based; settings: Homo sapiens
ES6 = assay type: functional, cell-based, Homo sapiens; settings: Homo sapiens, ES6;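 note: growth inhibition of human ES6 cells, read out with a cell viability assay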
LS-123 = assay type: functional, cell-based, Homo sapiens; settings: Homo sapiens, LS-123
KNS-81-FD = assay type: functional, cell-based, Homo sapiens; settings: Homo sapiens, KNS-81-FD;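 note: growth inhibition of KNS-81-FD cells, read out with a cell viability assay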
ES8 = assay type: functional, cell-based, Homo sapiens; settings: Homo sapiens, ES8;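 note: growth inhibition of human ES8 cells, read out with a cell viability assay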
GAK = assay type: functional, cell-based, Homo sapiens; settings: Homo sapiens, GAK;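 note: cell growth inhibition read out by a cell viability assay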
D-247MG = assay type: functional, cell-based, Homo sapiens; settings: Homo sapiens, D-247MG
NCI-H747 = assay type: functional, cell-based; settings: Homo sapiens;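 note: growth inhibition of human NCI-H747 cells, read out by a cell viability assay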
SK-UT-1 = assay type: functional, cell-based, Homo sapiens; settings: Homo sapiens, SK-UT-1;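 note: growth inhibition of SK-UT-1 cells, measured by a cell viability assay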
HCE-T = assay type: functional, cell-based, Homo sapiens; settings: Homo sapiens, HCE-T;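 note: cell viability assay read-out, reporting inhibition of HCE-T cell growth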
BB65-RCC = assay type: functional, cell-based, Homo sapiens; settings: Homo sapiens, BB65-RCC;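 note: growth inhibition of the cell line, measured with a cell viability assay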
KNS-42 = assay type: functional, cell-based, Homo sapiens; settings: Homo sapiens, KNS-42;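 note: growth inhibition of KNS-42 cells, read out with a cell viability assay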
RXF 393 = assay type: functional, cell-based; settings: Homo sapiens;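 note: growth inhibition of human RXF 393 cells, read out with a cell viability assay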
TE-10 = assay type: functional, cell-based, Homo sapiens; settings: Homo sapiens, TE-10;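 note: growth inhibition of TE-10 cells, measured by a cell viability assay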
KM12 = assay type: functional, cell-based, Homo sapiens; settings: Homo sapiens, KM12;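 note: KM12 cell growth inhibition, read out with a cell viability assay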
A704 = assay type: functional, cell-based, Homo sapiens; settings: Homo sapiens, A704;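 note: growth inhibition of human A704 cells, read out with a cell viability assay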
COLO-320-HSR = assay type: functional, cell-based; settings: Homo sapiens;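 note: growth inhibition of COLO-320-HSR cells, determined with a cell viability assay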
SHP77 = assay type: functional, cell-based, Homo sapiens, SHP-77; settings: Homo sapiens, SHP77;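 note: growth inhibition of human SHP-77 cells measured by a cell viability assay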
DU-4475 = assay type: functional, cell-based; settings: Homo sapiens
COR-L88 = assay type: functional, cell-based; settings: Homo sapiens;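 note: growth inhibition of COR-L88 cells, read out with a cell viability assay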
HL-60 = assay type: functional, cell-based; settings: Homo sapiens;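 note: growth inhibition of human HL-60 cells, read out with a cell viability assay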
ML-2 = assay type: functional, cell-based; settings: Homo sapiens;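 note: growth inhibition of ML-2 cells, measured with a cell viability readout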
RCC10RGB = assay type: functional, cell-based, Homo sapiens; settings: Homo sapiens, RCC10RGB;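 note: growth inhibition of human RCC10RGB cells, read out by a cell viability assay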
TE-1 = assay type: functional, cell-based, Homo sapiens; settings: Homo sapiens, TE-1
no-11 = assay type: functional, cell-based, Homo sapiens; settings: Homo sapiens;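 note: growth inhibition of human NO-11 cells, read out with a cell viability assay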
NCI-H1304 = assay type: functional, cell-based; settings: Homo sapiens;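 note: growth inhibition of the cancer cell line, measured in a cell viability assay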
SCH = assay type: functional, cell-based, Homo sapiens; settings: Homo sapiens, SCH;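 note: growth inhibition of human SCH cells, read out in a cell viability assay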

CN1CCN(CCOc2cc(OC3CCOCC3)c3c(Nc4c(Cl)ccc5c4OCO5)ncnc3c2)CC1 [SARACATINIB]
pIC50 (AM-38): < 5.70
pIC50 (SK-LMS-1): < 5.70
pIC50 (L-363): < 5.70
pIC50 (ES6): < 5.70
pIC50 (LS-123): < 5.70
pIC50 (KNS-81-FD): < 5.70
pIC50 (ES8): < 5.70
pIC50 (D-247MG): < 5.70
pIC50 (NCI-H747): < 5.70
pIC50 (SK-UT-1): < 5.70
pIC50 (HCE-T): < 5.70
pIC50 (BB65-RCC): < 5.70
pIC50 (KNS-42): < 5.70
pIC50 (RXF 393): 5.91
pIC50 (TE-10): 5.78
pIC50 (KM12): < 5.70
pIC50 (A704): 6.05
pIC50 (COLO-320-HSR): < 5.70
pIC50 (SHP77): < 5.70
pIC50 (DU-4475): < 5.70
pIC50 (COR-L88): < 5.70
pIC50 (HL-60): < 5.70
pIC50 (ML-2): < 5.70
pIC50 (RCC10RGB): < 5.70
pIC50 (TE-1): 5.84
pIC50 (no-11): < 5.70
pIC50 (NCI-H1304): < 5.70

CO[C@H]1C[C@@H]2CC[C@@H](C)[C@@](O)(O2)C(=O)C(=O)N2CCCC[C@H]2C(=O)O[C@H]([C@H](C)C[C@@H]2CC[C@@H](O)[C@H](OC)C2)CC(=O)[C@H](C)/C=C(\C)[C@@H](O)[C@@H](OC)C(=O)[C@H](C)C[C@H](C)/C=C/C=C/C=C/1C [SIROLIMUS]
pIC50 (AM-38): < 7.00
pIC50 (SK-LMS-1): 8.60
pIC50 (L-363): 7.35
pIC50 (ES6): 8.46
pIC50 (LS-123): < 7.00
pIC50 (KNS-81-FD): < 7.00
pIC50 (ES8): < 7.00
pIC50 (GAK): < 7.00
pIC50 (D-247MG): < 7.00
pIC50 (NCI-H747): < 7.00
pIC50 (SK-UT-1): 7.77
pIC50 (HCE-T): < 7.00
pIC50 (BB65-RCC): < 7.00
pIC50 (KNS-42): < 7.00
pIC50 (RXF 393): < 7.00
pIC50 (TE-10): 8.48
pIC50 (KM12): < 7.00
pIC50 (A704): < 7.00
pIC50 (COLO-320-HSR): < 7.00
pIC50 (SHP77): < 7.00
pIC50 (DU-4475): < 7.00
pIC50 (COR-L88): < 7.00
pIC50 (HL-60): < 7.00
pIC50 (ML-2): < 7.00
pIC50 (RCC10RGB): < 7.00
pIC50 (TE-1): < 7.00
pIC50 (no-11): 7.08
pIC50 (NCI-H1304): 7.24

CCC(=O)N1CCN(c2ccc(-n3c(=O)ccc4cnc5ccc(-c6cnc7ccccc7c6)cc5c43)cc2C(F)(F)F)CC1 [TORIN1]
pIC50 (AM-38): < 5.92
pIC50 (SK-LMS-1): 7.85
pIC50 (L-363): 8.55
pIC50 (ES6): 7.97
pIC50 (LS-123): 7.23
pIC50 (KNS-81-FD): 6.95
pIC50 (ES8): 7.73
pIC50 (GAK): 7.50
pIC50 (D-247MG): < 5.92
pIC50 (NCI-H747): 7.63
pIC50 (SK-UT-1): 7.65
pIC50 (SCH): 6.85
pIC50 (HCE-T): 6.96
pIC50 (BB65-RCC): 7.43
pIC50 (KNS-42): 7.09
pIC50 (RXF 393): 7.02
pIC50 (TE-10): 7.48
pIC50 (KM12): 7.12
pIC50 (A704): 7.01
pIC50 (COLO-320-HSR): 6.88
pIC50 (SHP77): < 5.92
pIC50 (DU-4475): 7.04
pIC50 (COR-L88): 5.95
pIC50 (HL-60): 6.83
pIC50 (ML-2): 6.86
pIC50 (RCC10RGB): < 5.92
pIC50 (TE-1): 6.55
pIC50 (no-11): 7.86
pIC50 (NCI-H1304): < 5.92

Cc1cc(Nc2cc(N3CCN(C)CC3)nc(Sc3ccc(NC(=O)C4CC4)cc3)n2)n[nH]1 [TOZASERTIB]
pIC50 (AM-38): < 5.70
pIC50 (SK-LMS-1): 5.91
pIC50 (L-363): < 5.70
pIC50 (ES6): < 5.70
pIC50 (LS-123): < 5.70
pIC50 (KNS-81-FD): < 5.70
pIC50 (ES8): 7.34
pIC50 (D-247MG): < 5.70
pIC50 (NCI-H747): < 5.70
pIC50 (SK-UT-1): 6.80
pIC50 (SCH): < 5.70
pIC50 (HCE-T): < 5.70
pIC50 (BB65-RCC): 5.93
pIC50 (KNS-42): < 5.70
pIC50 (RXF 393): < 5.70
pIC50 (TE-10): 5.95
pIC50 (KM12): 6.58
pIC50 (A704): < 5.70
pIC50 (COLO-320-HSR): < 5.70
pIC50 (SHP77): < 5.70
pIC50 (DU-4475): 5.99
pIC50 (COR-L88): < 5.70
pIC50 (HL-60): 5.97
pIC50 (ML-2): 6.04
pIC50 (RCC10RGB): < 5.70
pIC50 (TE-1): < 5.70
pIC50 (no-11): < 5.70
pIC50 (NCI-H1304): 5.74
